The results in this text go back to PMC6152666, “Five New Limonoids from Peels of Satsuma Orange (Citrus reticulata)” (Molecules : A Journal of Synthetic Chemistry and Natural …, 2017).

A short description of series [1]: Cytotoxicity assay (MTT) in RAW264.7 cells. The class given is cell-based, mouse. The note with it: mouse, RAW264.7 cells, RAW264.7, MTT, 24 h, vehicle control = 100%, mean ± S.E., n=4, read-out: Cell Viability %. On the procedure: (§1) RAW264.7 cells were grown in D-MEM medium supplemented with 10% FBS and antibiotics (100 units/mL penicillin G sodium salt and 100 μg/mL streptomycin sulfate). Cells were incubated at 37 °C in a 5% CO2 humidified incubator.
Cytotoxicity assay was performed according to a method reported previously Briefly, RAW264.7 cells (5 × 10^4 cells in 100 μL) were seeded onto a 96-well microplate and incubated for 24 h. DMEM containing test samples (100 μL total volume, final concentration of 30, 10, 3, or 1 μM) dissolved in DMSO (final concentration 0.2%) was added. After treatment for 24 h, MTT solution was added. After a 3-h incubation, 20% sodium dodecyl sulfate in 0.1 M HCl was added to dissolve the formazan produced in the cells. The absorbance of each well was read at 570 nm using a microplate reader. The optical density of vehicle control cells was assumed to be 100%.

The test system of series [2] is NO production in RAW264.7 mouse macrophages stimulated by lipopolysaccharide (LPS). Put plainly: Inhibitory assay of NO production in LPS-stimulated RAW264.7 macrophages. The note with it: RAW264.7 + LPS 5 μg/mL, 24 h; for activity at 1 µM / activity at 3 µM / activity at 10 µM / activity at 30 µM / IC50: Mus musculus; for activity at 1 µM / activity at 3 µM / activity at 10 µM / activity at 30 µM / Inhibitory Ratio of NO % (produced NO ratio): vehicle control = 100%, mean ± S.E., n=4; for activity at 1 µM / activity at 3 µM / activity at 10 µM: read-out: Inhibitory Ratio of NO %; for activity at 30 µM: read-out: Inhibitory Ratio of NO % (produced NO ratio); for activity at 30 µM / Inhibitory Ratio of NO % (produced NO ratio): 30 μM. The class given is cell-based.
Text: Macrophages may be a potential therapeutic target for inflammatory diseases. Activated macrophages release pro-inflammatory mediators, such as NO, reactive oxygen species, interleukin-1β, tumor necrosis factor-α, and other inflammatory mediators, which play important roles in biological defense. However, the overexpression of these mediators had been implicated in diseases such as osteoarthritis, rheumatoid arthritis, and diabetes because the increased production of pro-inflammatory mediators induces severe or chronic inflammation. Isolated compounds (1–12), and N^G-monomethyl-L-arginine, acetate (L-NMMA), which is a NO synthase inhibitor and was used as a positive control, were evaluated for macrophage activation by the inhibitory assay of NO production in RAW264.7 mouse macrophages stimulated by lipopolysaccharide (LPS).
as §1
An inhibitory assay of NO production was performed according to a method reported previously with slight modifications. Briefly, RAW264.7 cells (5 × 10^4 cells in 100 μL) were seeded into a 96-well microplate and incubated for 24 h. DMEM containing test samples (100 μL total volume, final concentration of 30, 10, 3, or 1 μM) dissolved in DMSO (final concentration 0.2%), and LPS (final concentration of 5 μg/mL), was added. After treatment for 24 h, the supernatant of culture medium was transferred to another 96-well microplate, and then 50 μL of 0.15% N-(1-naphtyl)ethylenediamine in H2O, and 1.5% sulfanilamide in 7.5% phosphoric acid were added. After incubation for 30 min, the absorbance of each well was read at 570 nm using a microplate reader. The optical density of vehicle control cells was assumed to be 100%.

For `CC1(C)O[C@H]2CC(=O)OC[C@]23[C@H]2CC[C@@]4(C)[C@H](C5=CC(=O)OC5O)OC(=O)[C@H]5O[C@]54[C@]2(C)C(=O)C[C@@H]13` (some centres unmarked) [Compound 7, shihulimonin A], in series [1], the viability (in general, a read-out of living cells in per cent, often relative to untreated cells) at 24 h, 1 µM was 102%; the viability at 24 h, 3 µM worked out at 106%; the viability at 24 h, 10 µM was determined as 104%; the viability at 24 h, 30 µM is 100%. In addition, in series [2], the activity at 1 µM worked out at 99.8 ± 1.4%, the activity at 3 µM came out at 99 ± 3%, the activity at 10 µM was 96.8 ± 2.5% and the activity at 30 µM came to 93.9 ± 4%. In addition, the IC50 – broadly, the concentration that inhibits the measured activity by half – in series [2] was above 30 µM.

`COC(=O)CC(OC(C)=O)C1(C)C(C(C)(C)O)CC(=O)C2(C)C1CCC1(C)C(C3=CC(=O)OC3O)OC(=O)C3OC312` (centres unmarked) [Compound 3, 21,23-dihydro-21-hydroxy-23-oxonomilinic acid methyl ester]: in series [1], the viability at 24 h, 1 µM worked out at 96.8%; the viability at 24 h, 3 µM was found to be 94.5%; the viability at 24 h, 10 µM stood at 93.2%; the viability at 24 h, 30 µM came out at 93.4%. Further, in series [2], the “Inhibitory Ratio of NO % (produced NO ratio)” value (“Inhibitory Ratio of NO %” below) is listed as 80.3 ± 1.2 %, the activity at 1 µM is 99.4 ± 0.8%, the activity at 3 µM stood at 99.4 ± 2.3% and the activity at 10 µM came to 94.1 ± 1.9%. In series [2], the activity at 30 µM was 80.3% and the IC50 is above 30 µM.

`CC1(C)OC(=O)C=C[C@]2(C)[C@H]3CC[C@@]4(C)[C@H](C5=CC(=O)OC5O)OC(=O)[C@H]5O[C@]54[C@]3(C)C(=O)C[C@@H]12` (some centres unmarked) [Compound 10, kihadanin A]: in series [1], the viability at 24 h, 1 µM was 105%; the viability at 24 h, 3 µM was determined as 102%; the viability at 24 h, 10 µM turned out to be 98.9%; the viability at 24 h, 30 µM is 98.6%. In addition, in series [2], the activity at 1 µM was found to be 95 ± 4.2%, the activity at 3 µM worked out at 96.8 ± 1.3%, the activity at 10 µM came to 97.7 ± 2.2% and the activity at 30 µM amounted to 86.6 ± 1.6%. Further, the IC50 in series [2] is above 30 µM.

Consider `CC(C)(O)[C@@H]1CC(=O)[C@]2(C)[C@H](CC[C@@]3(C)[C@H](c4ccoc4)OC(=O)[C@H]4O[C@]432)[C@]12COC(=O)C[C@@H]2O` [Compound 12, ichangin], for which, in series [1], the viability at 24 h, 1 µM came to 101%; the viability at 24 h, 3 µM turned out to be 98.1%; the viability at 24 h, 10 µM was 98.3%; the viability at 24 h, 30 µM was 98.3%. In addition, in series [2], the “Inhibitory Ratio of NO %” value is recorded as 73.9 ± 3.4 %, the activity at 1 µM was found to be 107 ± 4.1%, the activity at 3 µM stood at 92.6 ± 3.2% and the activity at 10 µM worked out at 88.4 ± 5.5%. Moreover, in series [2], the activity at 30 µM stood at 73.9% and the 50% inhibitory concentration (IC50) is above 30 µM.

`CC1(C)O[C@H]2CC(=O)OC[C@]23[C@H]2CC[C@@]4(C)[C@H](C5=CC(O)OC5=O)OC(=O)[C@H]5O[C@]54[C@]2(C)C(=O)C[C@@H]13` (some centres unmarked) [Compound 8, limonexic acid]: in series [1], the viability at 24 h, 1 µM turned out to be 98.1%; the viability at 24 h, 3 µM came to 97.6%; the viability at 24 h, 10 µM stood at 92%; the viability at 24 h, 30 µM is 89.3%. Also, in series [2], the “Inhibitory Ratio of NO %” value is recorded as 76.0 ± 2.2 %, the activity at 1 µM was 97.2 ± 1.1%, the activity at 3 µM came out at 94.7 ± 2.4% and the activity at 10 µM is 90.9 ± 1.6%. In series [2], the activity at 30 µM worked out at 76% and the IC50 is above 30 µM.

As for `COC1OC(OC)C2(C3OC(=O)C4OC45C3(C)CCC3C46COC(=O)CC4OC(C)(C)C6CC(=O)C35C)OC12` (centres unmarked) [Compound 9, evolimorutanin], in series [1], the viability at 24 h, 1 µM amounted to 101%; the viability at 24 h, 3 µM came to 97.7%; the viability at 24 h, 10 µM was 101%; the viability at 24 h, 30 µM came out at 97.6%. Also, in series [2], the activity at 1 µM stood at 94.3 ± 4.3%, the activity at 3 µM came to 85.2 ± 6.4%, the activity at 10 µM is 91.3 ± 2.8% and the activity at 30 µM was 89.9 ± 3.2%. In addition, the IC50 in series [2] is above 30 µM.

With `CC1(C)O[C@H]2CC(=O)OC[C@]23[C@H]2CC[C@@]4(C)[C@H](C5=CCOC5=O)OC(=O)[C@H]5O[C@]54[C@]2(C)C(=O)C[C@@H]13` [Compound 5, 21,23-Dihydro-21-oxolimonin], in series [1], the viability at 24 h, 1 µM was found to be 97.9%; the viability at 24 h, 3 µM came to 97.9%; the viability at 24 h, 10 µM turned out to be 99.5%; the viability at 24 h, 30 µM came to 96.6%. Also, in series [2], the “Inhibitory Ratio of NO %” value stood at 83.2 ± 5.6 %, the activity at 1 µM turned out to be 99.5 ± 5.6%, the activity at 3 µM came to 101 ± 4.7% and the activity at 10 µM came to 93.8 ± 1.6%. For the same compound, in series [2], the activity at 30 µM amounted to 83.2% and the half-inhibitory concentration (IC50) was above 30 µM.

Turning to `[H]/N=C(/NC)NCCC[C@H](N)C(=O)O` [L-NMMA, N^G-monomethyl-L-arginine, acetate, reference compound], in series [1], the viability at 24 h, 1 µM was determined as 102%; the viability at 24 h, 3 µM was 102%; the viability at 24 h, 10 µM worked out at 98.5%; the viability at 24 h, 30 µM is 109%. Also, in series [2], the activity at 1 µM came out at 93.3 ± 2.2%, the activity at 3 µM was 91.4 ± 0.8%, the activity at 10 µM stood at 68.9 ± 4.5% and the activity at 30 µM was found to be 43.1 ± 1.1%. Also, the IC50 in series [2] was 23.9 µM.

On to `COC1C=C([C@@H]2OC(=O)[C@H]3O[C@@]34[C@@]2(C)CC[C@@H]2[C@@]35COC(=O)C[C@@H]3OC(C)(C)[C@@H]5CC(=O)[C@]24C)C(=O)O1` (some centres unmarked) [Compound 4, 21,23-dihydro-23-methoxy-21-oxolimonin], for which, in series [1], the viability at 24 h, 1 µM stood at 103%; the viability at 24 h, 3 µM is 97%; the viability at 24 h, 10 µM worked out at 95.1%; the viability at 24 h, 30 µM worked out at 91.7%. In addition, in series [2], the activity at 1 µM turned out to be 96.2 ± 7.9%, the activity at 3 µM came to 94 ± 2.7%, the activity at 10 µM stood at 101 ± 1.2% and the activity at 30 µM stood at 95.2 ± 3.4%. The IC50 in series [2] is above 30 µM.

As for `CC1(C)OC(=O)C[C@H](O)[C@]2(C)[C@H]3CC[C@@]4(C)[C@H](c5ccoc5)OC(=O)[C@H]5O[C@]54[C@]3(C)C(=O)C[C@@H]12` [Compound 11, deacetylnomilin], in series [1], the viability at 24 h, 1 µM amounted to 95.9%; the viability at 24 h, 3 µM was 100%; the viability at 24 h, 10 µM was 99.3%; the viability at 24 h, 30 µM amounted to 100%. In series [2], the “Inhibitory Ratio of NO %” value is 78.1 ± 3.4 %, the activity at 1 µM is 104 ± 3.1%, the activity at 3 µM was found to be 93.2 ± 3.2% and the activity at 10 µM was 84.7 ± 3.2%. Besides, in series [2], the activity at 30 µM was 78.1% and the half-inhibitory concentration (IC50) was above 30 µM.

As to `CC1(C)O[C@H]2CC(=O)OC[C@]23[C@H]2CC[C@@]4(C)[C@H](c5ccoc5)OC(=O)[C@H]5O[C@]54[C@]2(C)C(=O)C[C@@H]13` [Compound 6, limonin], in series [1], the viability at 24 h, 1 µM worked out at 100%; the viability at 24 h, 3 µM was found to be 95.6%; the viability at 24 h, 10 µM amounted to 97.2%; the viability at 24 h, 30 µM worked out at 99.3%. Moreover, in series [2], the activity at 1 µM worked out at 102 ± 4.4%, the activity at 3 µM came to 93.4 ± 5.7%, the activity at 10 µM is 90.9 ± 3.1% and the activity at 30 µM amounted to 86 ± 5.5%. In addition, the IC50 in series [2] is above 30 µM.
